Patent US8993606B2, “Oral formulations for treating metal overload” (FerroKin BioSciences, Inc., priority 2011, dated 2015)

Tests used:
[1] = Aqueous solubility of salts; assay type: physicochemical; conditions: water; read-out: solubility in water
Excerpt: Typically, oral formulations described herein facilitate solubilizing an active ingredient (e.g., a desazadesferrithiocin analog, salt or polymorph) at a desired amount or rate suitable for the treatment of metal overload. As used herein, the term “solubility” is generally intended to be synonymous with the term “aqueous solubility,” and refers to the ability, and the degree of the ability, of a compound to dissolve in water or an aqueous solvent or buffer, as might be found under physiological conditions. Aqueous solubility is, in and of itself, a useful quantitative measure, but it has additional utility as a correlate and predictor, with some limitations which will be clear to those of skill in the art, of oral bioavailability. Typically, a soluble compound is generally desirable, and the more soluble, the better. In liquid formulations, solubility is typically reported in mg/mL, but other measures, such as g/g, may be used. Solubilities typically deemed acceptable may range from 1 mg/mL into the hundreds or thousands of mg/mL.
Solubility may be measured under varying conditions. For example, it may be measured under conditions similar to those found in the body, such as at gastric pH or at physiologic or near-physiologic pH. “Gastric pH” as used herein means about pH 1. […]

[2] = tested on: adults with transfusional iron overload; assay: Example 10: efficacy study, liver iron concentration (LIC); assay type: in vivo, human; conditions: for % with net iron reduction / Mean net change in hepatic iron: first 24 weeks; for LIC, Week 12 / LIC, Week 24 / LIC, Week 48: patients entering extension study
Procedure: In this Example, the safety and efficacy of Compound 1 in adults with transfusional iron overload over 48 weeks of treatment was assessed. Diagnosis and transfusional iron burden of patients (including Asians, Blacks/African Americans, and Whites) at randomization are as follows: 38 patients diagnosed with β-thalassemia major, 2 patients diagnosed with α-thalassemia major, 2 diagnosed with β-thalassemia intermedia (transfusion>7/year), 6 diagnosed with HbE-β thalassemia, and 3 diagnosed with Sickle cell disease. The patients were divided into two dosing groups: 14.5 mg/kg/day and 29 mg/kg/day. Average liver iron content at baseline (mg/g dry weight) was 13.2 with SD 6.64 for the 14.5 mg/kg/day dosing group and 13.9 with SD 7.82 for the 29 mg/kg/day dosing group. Median serum ferritin (ng/ml) was 2564 for the 14.5 mg/kg/day dosing group and 2624 for the 29 mg/kg/day dosing group. Mean pre-transfusion average haemoglobin of previous 3 transfusions (g/dL) was 9.6 (with SD of 0.56) for the 14.5 mg/kg/day dosing group and 9.8 (with SD of 0.79) for the 29 mg/kg/day dosing group. Mean daily transfusion iron intake (mg/kg/d) was about 0.36 (ranging 0.22-0.84) for the 14.5 mg/kg/day dosing group and 0.38 (ranging 0.17-0.60) for the 29 mg/kg/day dosing group. See also FIGS. 7 and 8.

[3] = tested on: patients with transfusional iron overload; assay: Example 11: efficacy study, serum ferritin; assay type: in vivo, human
Procedure: The goal of this experiment was to: 1. evaluate the safety and tolerability based on clinical assessments of two doses (16 and 32 mg/kg/d) of Compound 1 when administered daily for 24 weeks to patients with transfusional iron overload; 2. identify a differential response between dose groups in liver iron concentration determined by magnetic resonance imaging (MRI) after 24 weeks of dosing; and 3. assess the safety and efficacy activity of Compound 1 when administered daily for up to 96 weeks.
This experiment is an open-label, randomized study of two dose levels (16 and 32 mg/kg/d) of Compound 1 administered once daily for 24 weeks to eligible patients with transfusional iron overload requiring chelation therapy, with a dosing extension of 72 additional weeks.
Patients were assigned to one of two strate: “high” or “low” transfusion burden based on the average iron intake of the six transfusion sessions. Patients within each transfusion burden groups were randomized to one of two Compound 1 treatment arms: 16 mg/kg/d (16 mpk) or 32 mg/kg/d (32 mpk). The stratification followed by randomization to treatment arms helps to ensure an equal distribution of patients with “high” and “low” transfusion burdens to the high or low dose of Compound 1. Each treatment arm received one dose of Compound 1 daily for 24 weeks.
At the conclusion of the 24 week dosing period, patients who qualify and consent to continue treatment continued for an additional 72 weeks of Compound 1 dosing.
The inclusion of 25 patients in each treatment group provided a statistical power of 0.80 to detect, within 6 months, an LIC difference (normalized for initial LIC) of 3 mg/g dry weight between the two dose groups as determined by MRI. Baseline characteristics between dose groups were compared using Fisher extract test or Wilcoxon rank sum test as appropriate. The change in baseline to week 12, 24, and 72 values for all pharmacodynamics parameters were analyzed by an ANCOVA model with main effect for treatment group with baselines value for the corresponding parameters and transfusion burdon (iron input) during the study and baseline liver iron concentration as covariates comparing the two active treatment groups. T2* values were natural log transformed and summarized as the geometric mean (the antilog of the mean of the log data) plus or minus the co-efficient of variation (CV) defined as square root of eMSE where MSE is defined as the mean square error and subject to ANCOVA setting the p value as the threshold for statistical significance at 0.05 (confidence level of 95%).

## COCCOCCOCCOc1cccc(C2=N[C@@](C)(C(=O)O)CS2)c1O [Compound 1, (S)-4,5-Dihydro-2-[2-hydroxy-3-(3,6,9-trioxadecyloxy)phenyl]-4-methyl-4-thiazolecarboxylate magnesium hydroxide]
[1]
  solubility: ≥ 48 mg/mL
[2]; 14.5 mg/kg
  % with net iron reduction: 29%
  Mean net change in hepatic iron: 3.1 mg/g-dw
[2]; 29 mg/kg
  % with net iron reduction: 44%
  Mean net change in hepatic iron: −0.3 mg/g-dw
[2]; initial dose 14.5 mg/kg/day
  LIC, Week 12: 13.7 (1.74)
  LIC, Week 24: 13.6 (1.94)
  LIC, Week 48: 11.7 (1.46)
[2]; initial dose 29 mg/kg/day
  LIC, Week 12: 13.6 (2.04)
  LIC, Week 24: 12.8 (1.79)
  LIC, Week 48: 11.8 (2.04)
[2]; once daily oral, dose as low as 14.5 mg/kg of body weight
  effect on liver iron concentration in iron overload patients: reduces liver iron concentration
[3]; 16 mg/kg/d group
  Serum Ferritin Change from Baseline to Week 72, Geometric Mean: 1.14
  Serum Ferritin Change from Baseline to Week 72, Mean: 233.21
  Serum Ferritin Change from Baseline to Week 72, Median: 231.50
  Serum Ferritin Week 72, Geometric Mean: 2418.49
  Serum Ferritin Week 72, Mean: 2873.93
  Serum Ferritin Week 72, Median: 2544.50
[3]; 32 mg/kg/d group
  Serum Ferritin Change from Baseline to Week 72, Geometric Mean: 0.89
  Serum Ferritin Change from Baseline to Week 72, Mean: −150.82
  Serum Ferritin Change from Baseline to Week 72, Median: −436.00
  Serum Ferritin Week 72, Geometric Mean: 2441.03
  Serum Ferritin Week 72, Mean: 3026.82
  Serum Ferritin Week 72, Median: 2396.00
[3]; Total
  Serum Ferritin Change from Baseline to Week 72, Geometric Mean: 0.99
  Serum Ferritin Change from Baseline to Week 72, Mean: 22.61
  Serum Ferritin Change from Baseline to Week 72, Median: −56.00
  Serum Ferritin Week 72, Geometric Mean: 2430.83
  Serum Ferritin Week 72, Mean: 2957.77
  Serum Ferritin Week 72, Median: 2398.00
